Data: patent publication US20240352022A1, “GROUP OF IMB-C5 SERIES COMPOUNDS HAVING ANTI-CORONAVIRUS ACTIVITY AND APPLICATION THEREOF” (priority 2021, published 2024)
pEC50: −log10 of the molar value.

How the values were obtained:
[1] = test system: HCoV-229E; assay: anti-HCoV-229E activity in Huh7 cells by cytopathic effect (CPE) assay; format: cell-based, Human coronavirus HCoV-229E; settings: Human coronavirus 229E, Huh-7, HCoV-229E 100 TCID50 in Huh7 cells, about 48 h
[2] = test system: HCoV-229E; assay: anti-HCoV-229E activity in Huh7.5 cells by cytopathic effect (CPE) assay; format: cell-based, Human coronavirus HCoV-229E; settings: Human coronavirus 229E, HCoV-229E 100 TCID50 in Huh7.5 cells, about 48 h
[3] = in vitro; settings: human
[4] = in vitro; settings: human; remark: listed apart in the source
[5] = test system: HCoV-229E; assay: N protein level of HCoV-229E in Huh7 cells (Western Blotting); format: cell-based, Human coronavirus HCoV-229E; settings: MOI=1, 5 μM compound, 24 h

Compound | pEC50 [1] | pEC50 [2] | CC50 [3] | CC50 [4] | N protein level of HCoV-229E [5]
Cn1c(=O)c2c(nc(NCCO)n2Cc2ccc(OC(F)(F)F)cc2)n(C)c1=O [IMB-2-3, 8-((2-hydroxyethyl)amino)-1,3-dimethyl-7-(4-(trifluoromethoxy)benzyl)-3,7-dihydro-1H-purine-2,6-dione] | 4.94 | 5.32 | > 242 µM | > 242 µM | 
Cn1c(=O)c2c(nc(NCCO)n2Cc2cccc(Cl)c2)n(C)c1=O [IMB-2-5, 7-(3-chlorobenzyl)-8-((2-hydroxyethyl)amino)-1,3-dimethyl-3,7-dihydro-1H-purine-2,6-dione] | 5.88 |  | 200 µM |  | inhibited HCoV-229E in Huh7 cells to different degrees
Cn1c(=O)c2c(nc(NCCO)n2Cc2ccc(OC(F)F)cc2)n(C)c1=O [IMB-2-8, 7-(4-(difluoromethoxy)benzyl)-8-((2-hydroxyethyl)amino)-1,3-dimethyl-3,7-dihydro-1H-purine-2,6-dione] | 5.61 |  | > 200 µM |  | inhibited HCoV-229E in Huh7 cells to different degrees
Cn1c(=O)c2c(nc(NCCO)n2Cc2ccc(Cl)cc2)n(C)c1=O [IMB-2-14] | 5.84 |  | 200 µM |  | inhibited HCoV-229E in Huh7 cells to different degrees
Cn1c(=O)c2c(nc(NCCO)n2CC2CCOCC2)n(C)c1=O [IMB-3-19, ((2-hydroxyethyl)amino)-1,3-dimethyl-7-((tetrahydro-2H-pyran-4-yl)methyl)-3,7-dihydro-1H-purine-2,6-dione] | 5.73 |  | > 200 µM |  | inhibited HCoV-229E in Huh7 cells to different degrees
COc1cccc(Cn2c(NCCO)nc3c2c(=O)n(CCCNC(=O)OC(C)(C)C)c(=O)n3C)c1 [IMB-3-58, tert-butyl(3-(8-((2-hydroxyethyl)amino)-7-(3-methoxybenzyl)-3-methyl-2,6-dioxo-2,3,6,7-tetrahydro-1H-purin-1-yl)propyl)carbamate] | 4.18 |  | > 200 µM |  | 
C=CCn1c(=O)c2c(nc(NCCO)n2Cc2cccc(OC)c2)n(C)c1=O [IMB-3-71, allyl-8-((2-hydroxyethyl)amino)-7-(3-methoxybenzyl)-3-methyl-3,7-dihydro-1H-purine-2,6-dione] | 4.41 |  | 115 µM |  | 
C#CCn1c(=O)c2c(nc(NCCO)n2Cc2cccc(OC)c2)n(C)c1=O [IMB-3-72, 8-((2-hydroxyethyl)amino)-7-(3-methoxybenzyl)-3-methyl-1-(prop-2-yn-1-yl)-3,7-dihydro-1H-purine-2,6-dione] | 3.94 |  | > 200 µM |  | 
COc1cccc(Cn2c(NCCO)nc3c2c(=O)n(C)c(=O)n3Cc2ccccc2)c1 [IMB-3-81, benzyl-8-((2-hydroxyethyl)amino)-7-(3-methoxybenzyl)-1-methyl-3,7-dihydro-1H-purine-2,6-dione] | 4.02 |  | > 200 µM |  | 
CCOC(=O)c1cccc(Cn2c(NCCO)nc3c2c(=O)n(C)c(=O)n3C)c1 [IMB-4-6, ethyl3-((8-((2-hydroxyethyl)amino)-1,3-dimethyl-2,6-dioxo-1,2,3,6-tetrahydro-7H-purin-7-yl)methyl)benzoate] | 5.61 |  | 200 µM |  | 
Cn1c(=O)c2c(nc(NCCO)n2Cc2ccsc2)n(C)c1=O [IMB-4-12, 8-((2-hydroxyethyl)amino)-1,3-dimethyl-7-(thiophen-3-ylmethyl)-3,7-dihydro-1H-purine-2,6-dione] | 5.40 |  | > 200 µM |  | 
COc1cccc(CCn2c(NCCO)nc3c2c(=O)n(C)c(=O)n3C)c1 [IMB-4-13, 8-((2-hydroxyethyl)amino)-7-(3-methoxyphenethyl)-1,3-dimethyl-3,7-dihydro-1H-purine-2,6-dione] | 4.81 |  | > 200 µM |  | 
Cc1ccccc1Cn1c(NCCO)nc2c1c(=O)n(C)c(=O)n2C [IMB-68, 8-((2-hydroxyethyl)amino)-1,3-dimethyl-7-(2-methylbenzyl)-3,7-dihydro-1H-purine-2,6-dione] | 5.84 |  | 200 µM |  | inhibited HCoV-229E in Huh7 cells to different degrees
Cn1c(=O)c2c(nc(NCCO)n2Cc2cccc([N+](=O)[O-])c2)n(C)c1=O [IMB-79] | 4.76 |  | > 200 µM |  | 
Cn1c(=O)c2c(nc(NCCO)n2Cc2cccc(F)c2)n(C)c1=O [IMB-80, 7-(3-fluorobenzyl)-8-((2-hydroxyethyl)amino)-1,3-dimethyl-3,7-dihydro-1H-purine-2,6-dione] | 4.97 | 4.85 | > 288 µM | > 288 µM | 
Cn1c(=O)c2c(nc(NCCO)n2Cc2cccc(Br)c2)n(C)c1=O [IMB-81, 7-(3-bromobenzyl)-8-((2-hydroxyethyl)amino)-1,3-dimethyl-3,7-dihydro-1H-purine-2,6-dione] | 5.61 |  | 124 µM |  | 

Compound | pEC50 [1] | pEC50 [2] | CC50 [3] | CC50 [4] | N protein level of HCoV-229E [5]
Cn1c(=O)c2c(nc(NCCO)n2Cc2cccc(F)c2F)n(C)c1=O [IMB-82, 7-(2,3-difluorobenzyl)-8-((2-hydroxyethyl)amino)-1,3-dimethyl-3,7-dihydro-1H-purine-2,6-dione] | 4.52 | 4.16 | > 274 µM | > 274 µM | 
Cn1c(=O)c2c(nc(NCCO)n2Cc2ccc(F)cc2F)n(C)c1=O [IMB-83, 7-(2,4-difluorobenzyl)-8-((2-hydroxyethyl)amino)-1,3-dimethyl-3,7-dihydro-1H-purine-2,6-dione] | 5.50 |  | > 200 µM |  | 
Cn1c(=O)c2c(nc(NCCO)n2Cc2ccc(C(C)(C)C)cc2)n(C)c1=O [IMB-84, 7-(4-(tert-butyl)benzyl)-8-((2-hydroxyethyl)amino)-1,3-dimethyl-3,7-dihydro-1H-purine-2,6-dione] | 4.81 | 4.91 | > 259 µM | > 259 µM | 
COc1ccc(Cn2c(NCCO)nc3c2c(=O)n(C)c(=O)n3C)cc1 [IMB-88] | 4.78 | 4.63 | > 278 µM | > 278 µM | 
COc1cccc(Cn2c(N[C@@H](C)CO)nc3c2c(=O)n(C)c(=O)n3C)c1 [IMB-ZH-2, (S)-8-((1-hydroxypropan-2-yl)amino)-7-(3-methoxybenzyl)-1,3-dimethyl-3,7-dihydro-1H-purine-2,6-dione] | 4.35 | 4.08 | > 134 µM | > 134 µM | 
COCCNc1nc2c(c(=O)n(C)c(=O)n2C)n1Cc1cccc(OC)c1 [IMB-ZH-10, 7-(3-methoxybenzyl)-8-((2-methoxyethyl)amino)-1,3-dimethyl-3,7-dihydro-1H-purine-2,6-dione] | 5.07 | 4.72 | > 134 µM | > 134 µM | 
COc1cccc(Cn2c(NCc3ccc(F)c(C(F)(F)F)c3)nc3c2c(=O)n(C)c(=O)n3C)c1 [IMB-ZH-11, 8-((4-fluoro-3-(trifluoromethyl)benzyl)amino)-7-(3-methoxybenzyl)-1,3-dimethyl-3,7-dihydro-1H-purine-2,6-dione] | 4.68 | 4.58 | > 102 µM | > 102 µM | 
COc1cccc(Cn2c(N[C@@H](CO)C(C)C)nc3c2c(=O)n(C)c(=O)n3C)c1 [IMB-ZH-12, (R)-8-((1-hydroxy-3-methylbutan-2-yl)amino)-7-(3-methoxybenzyl)-1,3-dimethyl-3,7-dihydro-1H-purine-2,6-dione] | 4.22 | 4.22 | > 125 µM | > 125 µM | 
Cn1c(=O)c2c(nc(NCCO)n2Cc2cccc(Cl)c2F)n(C)c1=O [IMB-ZHB-4x, 7-(3-chloro-2-fluorobenzyl)-8-((2-hydroxyethyl)amino)-1,3-dimethyl-3,7-dihydro-1H-purine-2,6-dione] | 5.42 | 5.07 | 91 µM | 91 µM | 
Cn1c(=O)c2c(nc(NCCO)n2Cc2ccccc2)n(C)c1=O [IMB-ZHB-13x, 7-benzyl-8-((2-hydroxyethyl)amino)-1,3-dimethyl-3,7-dihydro-1H-purine-2,6-dione] | 5.25 | 4.41 | > 152 µM | > 152 µM | 
COC(=O)CNc1nc2c(c(=O)n(C)c(=O)n2C)n1Cc1cccc(OC)c1 [IMB-ZHC-2, methyl(7-(3-methoxybenzyl)-1,3-dimethyl-2,6-dioxo-2,3,6,7-tetrahydro-1H-purin-8-yl)glycinate] | 4.54 | 4.37 | > 129 µM | > 129 µM | 
COc1cccc(Cn2c(NC[C@@H](C)O)nc3c2c(=O)n(C)c(=O)n3C)c1 [IMB-ZHC-6, (R)-8-((2-hydroxypropyl)amino)-7-(3-methoxybenzyl)-1,3-dimethyl-3,7-dihydro-1H-purine-2,6-dione] | 4.90 | 4.23 | > 134 µM | > 134 µM | 
COc1cccc(Cn2c(NC[C@H](C)O)nc3c2c(=O)n(C)c(=O)n3C)c1 [IMB-ZHC-7, (S)-8-((2-hydroxypropyl)amino)-7-(3-methoxybenzyl)-1,3-dimethyl-3,7-dihydro-1H-purine-2,6-dione] | 4.72 | 4.35 | > 134 µM | > 134 µM | 
COc1cccc(Cn2c(NCC(N)=O)nc3c2c(=O)n(C)c(=O)n3C)c1 [IMB-ZHC-15, ((7-(3-methoxybenzyl)-1,3-dimethyl-2,6-dioxo-2,3,6,7-tetrahydro-1H-purin-8-yl)amino)acetamide] | 4.35 | 4.23 | > 134 µM | > 134 µM | 
CC(C)C(=O)OC[C@H]1O[C@@H](n2ccc(NO)nc2=O)[C@H](O)[C@@H]1O [Molnupiravir, reference compound] | 5.72 | 5.37 | > 200 µM | > 200 µM | 
NC(=O)c1ncn([C@@H]2O[C@H](CO)[C@@H](O)[C@H]2O)n1 [RBV, Ribavirin, reference compound] | 4.58 | 4.78 |  |  | 
